Marks after values point to notes of the source that are not given here.
Key:
cystatin C = experiment: Human clinical trial: cystatin C (colloidal gold agglutination method); format: in vivo
Procedure: (§1) 1. […] Patients were assigned to each group so that age, sex, presence of diabetes, and eGFR were not biased. Each group was treated according to the “CKD medical care guide-summary of treatment” (hereinafter referred to as standard treatment).
(§2) An alkalinizing agent was not administered to the control group. […] A pH of early morning urine was controlled over time so that the dosage could be increased up to 6 tablets, 3 times a day (morning, noon, evening) as needed according to the discretion of the physician in cases where a pH of early morning urine was less than pH 6.5. To the group B, 3 tablets a day in which each tablet contained 500 mg of sodium bicarbonate were orally administered 3 times a day (morning, noon, evening) for 24 weeks. A pH of early morning urine was controlled over time so that the dosage could be increased up to 6 tablets, 3 times a day (morning, noon, evening) as needed according to the discretion of the physician in cases where a pH of early morning urine was less than pH 6.5.
Early morning urine and blood were collected before the start of administration, and 6 weeks, 12 weeks, and 24 weeks after the start of administration, and each specimen was stored at −80° C. Methods used in the present field for indoxyl sulfate, p-cresyl sulfate, phenylacetyl-L-glutamine, hippuric acid, and argininosuccinic acid in urine and blood (Sato, E., et. al., Metabolic alteration by indoxyl sulfate in skeletal muscle induce uremic sarcopenia in chronic kidney disease., Sci Rep. 2016 Nov. 10; 6:36618. doi: 10.1038/srep36618, and the like) were referred to, and quantitative analysis was performed using the following liquid chromatography triple quadrupole mass spectrometer (LC-MS/MS).
In addition, the amount of urinary β2-microglobulin was measured by latex agglutination method using the LZ test “Eiken” β2-M and LZ-β2-M standard U “Eiken” (Eiken Chemical Co., Tokyo, Japan). Furthermore, the amount of cystatin C in the serum was measured by a colloidal gold agglutination method using Nescoat GC Cystatin C (Nm) (Alfresa Pharma, Osaka, Japan).
For statistical analysis, the Mann-Whitney test was used for comparison between groups, and the Wilcoxon test was used for comparison of changes over time. The Pearson test was used for correlation.

[1] = Human clinical trial: osmotic pressure of early morning urine (freezing point depression method); format: in vivo
Procedure: as §1, §2
The osmotic pressure was measured using the freezing point depression method.

indoxyl sulfate = experiment: Urine indoxyl sulfate (IS) corrected by urine osmotic pressure; format: in vivo, human
Description: Medical Examination, Vol. 44, No. 1, 1995, pages 79-83 by Tetsuo Aoki et al. was referred to. In addition, a urine osmotic pressure 770 mOsm/kg was converted into a reference value.
Osmotic pressure correction value (unit/500 mOsm·P)=actual measurement value×500/osmotic pressure value

For O=C([O-])O.[Na+] [Bicarbonate, sodium bicarbonate], which “Plasma Cystatine C” value (cystatin C; 0 W, before the start of administration) is on record?
The value was 1.165 ± 0.296 mg/L.

And the “Plasma Cystatine C” value (cystatin C; 6-24 W, all data of 6, 12 and 24 weeks)?
The value was 1.154 ± 0.278 mg/L.

What about the “Plasma Cystatine C” value (cystatin C; 6 W) of the same compound?
The value was 1.171 ± 0.281 mg/L.

What about the “Plasma Cystatine C” value (cystatin C; 12 W) of the same compound?
Its value is 1.151 ± 0.295 mg/L.

What about the “Plasma Cystatine C” value (cystatin C; 24 W) of the same compound?
The value was 1.141 ± 0.275 mg/L.

And the “influence on the function of glomeruli” value (cystatin C; from cystatin C, Table 8)?
The value was “no influence”.

What about the “Urine Osmotic Pressure” value ([1]; 0 W, before the start of the test) of the same compound?
Its value is 492 ± 206 mOsm/kg.

What about the “Urine Osmotic Pressure” value ([1]; 6-24 W, all data) of the same compound?
Its value is 486 ± 164 mOsm/kg.

What about the “Urine Osmotic Pressure (% Relative value vs week 0)” value ([1]; 6-24 W, all data) of the same compound?
The value was 109 ± 45^b %.

And the “Urine Osmotic Pressure, difference vs week 0” value ([1]; 6-24 W, all data)?
The value was −6 ± 168 mOsm/kg.

And the “Urine Osmotic Pressure” value ([1]; 6 W)?
The value was 488 ± 154 mOsm/kg.

And the “Urine Osmotic Pressure (% Relative value vs week 0)” value ([1]; 6 W)?
Its value is 108 ± 34%.

What about the “Urine Osmotic Pressure, difference vs week 0” value ([1]; 6 W) of the same compound?
Its value is −4 ± 165 mOsm/kg.

What about the “Urine Osmotic Pressure” value ([1]; 12 W) of the same compound?
The value was 456 ± 143 mOsm/kg.

And the “Urine Osmotic Pressure (% Relative value vs week 0)” value ([1]; 12 W)?
The value was 105 ± 57%.

And the “Urine Osmotic Pressure, difference vs week 0” value ([1]; 12 W)?
The value was −36 ± 176^ mOsm/kg.

What about the “Urine Osmotic Pressure” value ([1]; 24 W) of the same compound?
The value was 515 ± 195 mOsm/kg.

What about the “Urine Osmotic Pressure (% Relative value vs week 0)” value ([1]; 24 W) of the same compound?
Its value is 114 ± 45%.

And the “Urine Osmotic Pressure, difference vs week 0” value ([1]; 24 W)?
Its value is 23 ± 169 mOsm/kg.

What about the “osmotic pressure value of early morning urine” value ([1]; over 6, 12 and 24 weeks, compared with the control group) of the same compound?
Its value is “maintained or increased”.

And the “Urine IS, osmotic pressure corrected” value (indoxyl sulfate; 0 W)?
Its value is 87.9 ± 40.0 μg · mL^−1/770 mOsm · P.

What about the “Urine IS, osmotic pressure corrected” value (indoxyl sulfate; 6-24 W, all data) of the same compound?
The value was 77.0 ± 42.5 μg · mL^−1/770 mOsm · P.

What about the “Urine IS, osmotic pressure corrected, % Relative value vs week 0” value (from here on “Urine IS … % Relative value vs week 0”) (indoxyl sulfate; 6-24 W, all data) of the same compound?
The value was 93 ± 49%.

What about the “Urine IS, osmotic pressure corrected” value (indoxyl sulfate; 6 W) of the same compound?
The value was 82.9 ± 44.6 μg · mL^−1/770 mOsm · P.

And the “Urine IS … % Relative value vs week 0” value (indoxyl sulfate; 6 W)?
The value was 98 ± 30%.

And the “Urine IS … % Relative value vs week 0” value (indoxyl sulfate; 12 W)?
Its value is 77 ± 39%.

And the “Urine IS, osmotic pressure corrected” value (indoxyl sulfate; 24 W)?
Its value is 84.4 ± 48.4 μg · mL^−1/770 mOsm · P.

What about the “Urine IS … % Relative value vs week 0” value (indoxyl sulfate; 24 W) of the same compound?
The value was 104 ± 68%.

Source: patent publication US20210121426A1, “BLOOD PURIFICATION BY ALKALINIZING AGENT” (TOHOKU UNIVERSITY, priority 2017, published 2021)
